# In patent US8013112B2, “Compositions comprising human brain natriuretic peptide (BNP) fragments” (Abbott Laboratories, priority 2006, dated 2011):
# Bridges are numbered along the chain shown (N, C = ends). Roman numbers before positions name the chains, in order. Where no end group is shown, it is not given here.
# Experiments:
# [1] = assay type: in vitro ADME, human
# Description: EDTA plasma of healthy human subjects and human BNP plasma specimens were obtained from ProMedDx LLC (Norton, Mass.), shipped on dry ice, and stored at −70° C. before use.
# In this study, human BNP degradation products in human BNP specimens and the impact of temperature on degradation was studied. Prior to sample extractions for analysis, each sample was split into two vials and incubated at room temperature for 0 hours (t=0 hour) and 48 hours (t=48 hours), respectively. The samples were then extracted using the methodology described in Example 4 and analyzed by the API 4000.
# Experiments were conducted to determine if human BNP n-32 fragments (where n is an interger b=1, 2, 3, 4, 5, 6) were present in the specimen and to evaluate whether aminopeptidase type protease is involved in human BNP degradation. The samples were prepared and analyzed using the same methodology as described in Example 4, except that samples were monitored for human BNP n-32 fragments (n=1, 2, 3, 4, 5, 6[…]).
# Next, to determine if ring cleavage products were present, human BNP fragment 5-32x was then monitored prior to and after incubation at room temperature. The samples were not monitored for other human BNP n-32x fragments since these fragments would be formed by the same process as human BNP 5-32x fragments. Additionally, monitoring for more fragments would reduce the detection sensitivity of the method.
# Using both of these approaches, human BNP fragments prior to and after room temperature incubation were monitored for both human BNP n-32 fragments and human BNP n-32x fragments for 20 samples.
# [2] = assay type: in vitro ADME, human; remark: listed apart in the source
# Description: Human BNP was spiked into Human BNP specimens (EDTA plasma) using the same procedure as in Example 2, and the spiked samples were studied using the same methodology as in Example 4. […] However, the cleavage rates appeared to be slower in the heart-failure patient samples: after 8 hours incubation at the room temperature, 80% of the degradation products still contain the C-terminus (human BNP fragment 3-32, human BNP 1-32, and human BNP fragments 3-32X and 1-32x). When the same concentration of human BNP was spiked into a pooled EDTA plasma of healthy human subjects, only 5% of the fragments contain intact C-terminus after 4 hours incubation at room temperature (See, Example 5).
# [3] = Degradation time course of human BNP 1-32 spiked in pooled EDTA plasma of healthy human subjects, LC/MS
# Description: An aliquot of the mixture was taken at various time points with protease inhibitor added and frozen immediately. Samples were extracted along with an internal standard (the internal standard was a biotinylated human BNP mutant. In this mutant, amino acid 32 (histidine) was replaced by alanine and is hereinafter referred to as “Biotin-BNP1-32 (H32A)”) by a monoclonal antibody 106.3 (hereinafter referred to as “mAb 106.3”) coated magnetic microparticles and released human BNP and fragments were analyzed by LC/MS. The relative abundance of each fragments were plotted.
# To study human BNP degradation near physiological concentration, an API4000 LC/MS system (Applied Biosystems, Foster City, Calif.) equipped with Agilent 1100 HPLC was used to determine the degradation of human BNP spiked at 5 ng/mL in a pooled normal EDTA plasma. […] The major human BNP degradation products (namely, 1-32, 3-32, 3-30, and 3-30x) and kinetics were analyzed by LC/MS using selected ion monitoring mode according to instrument protocol. […]
# The relative concentration of human BNP fragments 3-32, 3-30 and 3-30x were monitored at various time points (0.5, 4, 6, 8, 10, 24 hours). Triply charged human BNP peptides and human BNP fragments, namely, 1-32, 3-32, 3-30, and 3-30x were monitored at m/z 1155.6, 1094.6.
Compound,Human BNP fragment Peak high ranking (T = 0 hours) [1],major cleavage product after incubation at room temperature [1],degradation products that still contain the C-terminus [2] [%],"relative concentration over the time course of study ([3]; human BNP spiked at 5 ng/mL in pooled normal EDTA plasma, room temperature, 0.5-24 hours (FIG. 7))","fragments that contain intact C-terminus ([3]; human BNP spiked in pooled EDTA plasma of healthy human subjects, after 4 hours incubation at room temperature) [%]"
"3-30x: Human BNP Fragment Composition: 3-30 with ring cleavage, two fragments (e.g. BNP3-17 and BNP18-30) cross-linked by disulfide bond (chain 1 KMVQGSGCFGRKMDR; chain 2 ISSSSGLGCKVLR; disulfide I:8-II:9 (inferred))",5,,,,
"5-32x: ring-cleaved, cross-linked form of human BNP fragment 5-32",,become the major product,,,
CC[C@H](C)[C@@H]1NC(=O)[C@H](CCCNC(=N)N)NC(=O)[C@H](CC(=O)O)NC(=O)[C@H](CCSC)NC(=O)[C@H](CCCCN)NC(=O)[C@H](CCCNC(=N)N)NC(=O)CNC(=O)[C@H](Cc2ccccc2)NC(=O)[C@@H](NC(=O)CNC(=O)[C@H](CO)NC(=O)CNC(=O)[C@H](CCC(N)=O)NC(=O)[C@@H](NC(=O)[C@H](CCSC)NC(=O)[C@H](CCCCN)NC(=O)[C@@H]2CCCN2C(=O)[C@@H](N)CO)C(C)C)CSSC[C@@H](C(=O)N[C@@H](CCCCN)C(=O)N[C@H](C(=O)N[C@@H](CC(C)C)C(=O)N[C@@H](CCCN=C(N)N)C(=O)N[C@@H](CCCN=C(N)N)C(=O)N[C@@H](Cc2cnc[nH]2)C(=O)O)C(C)C)NC(=O)CNC(=O)[C@H](CC(C)C)NC(=O)CNC(=O)[C@H](CO)NC(=O)[C@H](CO)NC(=O)[C@H](CO)NC(=O)[C@H](CO)NC1=O [1-32],3,,80,decreased drastically,5
"5-30x: Human BNP Fragment Composition 5-30x: ring-cleaved, cross-linked form of fragment 5-30",4,,,,
